Legend:
Assay type in all cases: cell-based
[1] = biological target: T1, Ba/F3 cells with EGFR exon 20 ASV Ins V769_D770 (Homo sapiens, UniProt P00533, INS769ASV); assay: EGFR activity: Ba/F3 cell viability (CellTiter-Glo, 72 h), EGFR exon 20 ASV insertion; details: EGFR exon 20 ASV Ins V769_D770, cell viability, read-out: BaF3 ASV IC50
T1 construct: expressed in transfected cells; host or cells: Ba/F3 (murine pro-B cells), retroviral transduction, puromycin selection, IL3-independent pool

[2] = biological target: T2, Ba/F3 cells with EGFR WT (Homo sapiens, UniProt P00533); assay: EGFR activity: Ba/F3 cell viability (CellTiter-Glo, 72 h), EGFR WT; details: read-out: BaF3 WT IC50
T2 construct: expressed in transfected cells; host or cells: Ba/F3 (murine pro-B cells), retroviral transduction, puromycin selection, maintained with EGF

[3] = biological target: T3, Ba/F3 cells with EGFR exon 20 NPG Ins D770_N771 (Homo sapiens, UniProt P00533, INS770NPG); assay: EGFR activity: Ba/F3 cell viability (CellTiter-Glo, 72 h), EGFR exon 20 NPG insertion; details: EGFR exon 20 NPG Ins D770_N771, cell viability, read-out: BaF3 NPG IC50
T3 construct: expressed in transfected cells; host or cells: Ba/F3 (murine pro-B cells), retroviral transduction, puromycin selection, IL3-independent pool

[4] = biological target: T4, pEGFR in Ba/F3 cells expressing EGFR exon 20 NPG Ins D770_N771 (Homo sapiens, UniProt P00533, INS770NPG); assay: Inhibitor activity on EGFR phosphorylation (pEGFR AlphaLISA, 2 h), Ba/F3 EGFR exon 20 NPG insertion; details: Ba/F3 EGFR exon 20 NPG Ins D770_N771
T4 construct: expressed in transfected cells; host or cells: Ba/F3 (murine pro-B cells), retroviral transduction, puromycin selection, IL3-independent pool
T4 sequence (P00533 with tags, fused parts or gaps INS770NPG): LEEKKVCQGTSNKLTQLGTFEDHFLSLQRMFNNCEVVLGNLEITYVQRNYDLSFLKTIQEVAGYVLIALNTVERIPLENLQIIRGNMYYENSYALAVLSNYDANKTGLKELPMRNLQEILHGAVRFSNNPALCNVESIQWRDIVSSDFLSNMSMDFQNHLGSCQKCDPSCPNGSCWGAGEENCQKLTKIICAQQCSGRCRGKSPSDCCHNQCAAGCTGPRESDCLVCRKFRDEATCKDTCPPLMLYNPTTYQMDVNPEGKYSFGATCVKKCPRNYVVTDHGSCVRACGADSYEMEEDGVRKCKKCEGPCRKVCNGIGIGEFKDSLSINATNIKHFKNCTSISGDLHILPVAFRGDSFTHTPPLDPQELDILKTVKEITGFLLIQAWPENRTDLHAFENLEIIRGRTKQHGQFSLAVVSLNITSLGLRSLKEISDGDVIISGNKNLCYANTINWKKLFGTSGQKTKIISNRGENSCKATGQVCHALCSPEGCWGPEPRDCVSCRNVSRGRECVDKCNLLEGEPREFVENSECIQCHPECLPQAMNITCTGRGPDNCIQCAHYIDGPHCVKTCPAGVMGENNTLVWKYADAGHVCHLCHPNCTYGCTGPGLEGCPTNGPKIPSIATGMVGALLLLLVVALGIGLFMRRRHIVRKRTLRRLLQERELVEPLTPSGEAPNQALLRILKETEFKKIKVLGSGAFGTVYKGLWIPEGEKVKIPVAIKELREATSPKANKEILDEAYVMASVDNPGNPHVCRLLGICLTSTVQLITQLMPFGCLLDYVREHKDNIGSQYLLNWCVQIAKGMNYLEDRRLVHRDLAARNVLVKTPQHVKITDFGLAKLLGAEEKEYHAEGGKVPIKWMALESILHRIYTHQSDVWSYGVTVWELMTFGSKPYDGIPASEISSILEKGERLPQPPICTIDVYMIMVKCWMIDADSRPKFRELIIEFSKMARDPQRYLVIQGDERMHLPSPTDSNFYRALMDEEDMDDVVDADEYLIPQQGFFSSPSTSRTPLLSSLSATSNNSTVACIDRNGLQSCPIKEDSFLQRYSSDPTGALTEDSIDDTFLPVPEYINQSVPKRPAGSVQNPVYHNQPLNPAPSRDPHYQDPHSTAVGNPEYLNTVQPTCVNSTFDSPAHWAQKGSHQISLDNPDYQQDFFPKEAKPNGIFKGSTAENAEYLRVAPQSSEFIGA

T2 sequence (P00533 25-1210): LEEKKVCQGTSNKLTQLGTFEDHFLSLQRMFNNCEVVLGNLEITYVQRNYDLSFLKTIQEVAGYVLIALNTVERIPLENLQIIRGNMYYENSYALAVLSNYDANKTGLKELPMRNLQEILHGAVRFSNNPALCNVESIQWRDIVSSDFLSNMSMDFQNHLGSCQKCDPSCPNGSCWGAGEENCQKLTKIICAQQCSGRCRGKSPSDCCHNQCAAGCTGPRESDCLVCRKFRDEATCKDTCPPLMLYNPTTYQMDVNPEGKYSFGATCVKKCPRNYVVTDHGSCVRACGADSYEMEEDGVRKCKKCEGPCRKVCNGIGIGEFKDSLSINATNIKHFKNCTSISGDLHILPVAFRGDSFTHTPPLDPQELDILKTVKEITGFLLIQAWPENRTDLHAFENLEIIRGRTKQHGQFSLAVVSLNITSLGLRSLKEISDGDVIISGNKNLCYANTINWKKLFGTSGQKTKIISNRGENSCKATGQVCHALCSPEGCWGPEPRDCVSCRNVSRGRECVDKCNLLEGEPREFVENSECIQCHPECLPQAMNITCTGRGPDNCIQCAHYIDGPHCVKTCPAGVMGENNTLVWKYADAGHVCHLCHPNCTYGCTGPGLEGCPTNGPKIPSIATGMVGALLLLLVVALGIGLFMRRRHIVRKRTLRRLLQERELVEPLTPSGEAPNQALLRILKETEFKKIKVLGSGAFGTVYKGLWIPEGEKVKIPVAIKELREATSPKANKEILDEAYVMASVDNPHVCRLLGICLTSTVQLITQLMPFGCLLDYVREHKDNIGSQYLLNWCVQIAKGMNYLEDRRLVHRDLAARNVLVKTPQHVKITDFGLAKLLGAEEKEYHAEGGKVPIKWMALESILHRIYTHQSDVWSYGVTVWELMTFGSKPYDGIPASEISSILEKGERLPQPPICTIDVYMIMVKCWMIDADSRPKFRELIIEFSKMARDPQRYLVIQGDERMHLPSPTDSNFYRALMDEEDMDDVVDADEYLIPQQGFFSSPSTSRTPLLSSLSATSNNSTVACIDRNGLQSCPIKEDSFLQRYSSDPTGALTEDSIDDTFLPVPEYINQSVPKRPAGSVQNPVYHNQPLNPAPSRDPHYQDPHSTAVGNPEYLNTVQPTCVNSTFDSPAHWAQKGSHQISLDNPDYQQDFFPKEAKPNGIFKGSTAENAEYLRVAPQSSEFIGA
T1 sequence (P00533 with tags, fused parts or gaps INS769ASV): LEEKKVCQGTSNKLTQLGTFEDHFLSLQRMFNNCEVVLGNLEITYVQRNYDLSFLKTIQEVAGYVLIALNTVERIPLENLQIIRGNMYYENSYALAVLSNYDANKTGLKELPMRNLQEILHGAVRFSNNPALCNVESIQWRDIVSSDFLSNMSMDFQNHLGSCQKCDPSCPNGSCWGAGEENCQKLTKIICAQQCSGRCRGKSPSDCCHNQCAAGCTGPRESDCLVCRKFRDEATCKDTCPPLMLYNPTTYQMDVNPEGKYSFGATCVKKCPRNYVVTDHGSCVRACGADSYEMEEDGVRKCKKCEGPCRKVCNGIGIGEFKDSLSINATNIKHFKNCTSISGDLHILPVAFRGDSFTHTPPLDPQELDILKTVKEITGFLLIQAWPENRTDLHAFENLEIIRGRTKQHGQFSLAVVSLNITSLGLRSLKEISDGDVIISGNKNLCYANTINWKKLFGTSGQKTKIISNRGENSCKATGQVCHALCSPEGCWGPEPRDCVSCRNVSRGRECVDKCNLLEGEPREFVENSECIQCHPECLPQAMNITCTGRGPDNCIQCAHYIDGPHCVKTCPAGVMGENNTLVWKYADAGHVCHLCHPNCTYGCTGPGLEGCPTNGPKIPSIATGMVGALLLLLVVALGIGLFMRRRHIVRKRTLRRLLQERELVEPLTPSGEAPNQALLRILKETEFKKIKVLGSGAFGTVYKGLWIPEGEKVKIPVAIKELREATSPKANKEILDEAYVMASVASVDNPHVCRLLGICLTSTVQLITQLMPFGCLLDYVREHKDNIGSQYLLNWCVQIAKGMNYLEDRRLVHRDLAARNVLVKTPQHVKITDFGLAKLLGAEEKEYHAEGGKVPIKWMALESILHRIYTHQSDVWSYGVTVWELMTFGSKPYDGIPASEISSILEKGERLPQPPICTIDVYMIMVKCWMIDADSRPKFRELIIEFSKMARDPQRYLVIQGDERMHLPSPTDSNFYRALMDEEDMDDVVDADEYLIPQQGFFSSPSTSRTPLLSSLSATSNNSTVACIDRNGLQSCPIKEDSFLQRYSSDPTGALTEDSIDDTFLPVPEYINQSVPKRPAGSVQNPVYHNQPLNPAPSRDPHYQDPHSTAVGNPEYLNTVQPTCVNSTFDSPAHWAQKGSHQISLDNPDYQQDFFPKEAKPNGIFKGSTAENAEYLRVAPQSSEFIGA
T3 sequence (P00533 with tags, fused parts or gaps INS770NPG): as the sequence (P00533 with tags, fused parts or gaps INS770NPG) above

Structure (SMILES): COc1c(Cl)cccc1Nc1c(-c2ccncc2OC[C@H]2CCCN2S(C)(=O)=O)[nH]c2c1C(=O)NCC2 [Compound 142b, 3-[(3-chloro-2-methoxyphenyl)amino]-2-(3-[[(2R)-1-methanesulfonylpyrrolidin-2-yl]methoxy]pyridin-4-yl)-1H,5H,6H,7H-pyrrolo[3,2-c]pyridin-4-one]
- IC50 [1]: < 100 nM
- IC50 [2]: 100 to 1000 nM
- IC50 [3]: < 100 nM
- IC50 [4]: < 100 nM

Structure (SMILES): COc1c(Cl)cccc1Nc1c(-c2ccncc2C#CC(C)(C)OC)[nH]c2c1C(=O)NCC2 [Compound 188, 3-((3-chloro-2-methoxyphenyl)amino)-2-(3-(3-methoxy-3-methylbut-1-yn-1-yl)pyridin-4-yl)-1,5,6,7-tetrahydro-4H-pyrrolo[3,2-c]pyridin-4-one]
- IC50 [1]: 100 to 1000 nM
- IC50 [2]: < 100 nM
- IC50 [3]: < 100 nM
- IC50 [4]: < 100 nM

Structure (SMILES): C=CC(=O)N1CCCC[C@@H]1COc1cnccc1-c1[nH]c2c(c1Nc1cccc(F)c1C)C(=O)NCC2 [Compound 468, 3-[(3-fluoro-2-methylphenyl)amino]-2-(3-[[(2R)-1-(prop-2-enoyl)piperidin-2-yl]methoxy]pyridin-4-yl)-1H,5H,6H,7H-pyrrolo[3,2-c]pyridin-4-one]
- IC50 [1]: 100 to 1000 nM
- IC50 [2]: 100 to 1000 nM
- IC50 [3]: 100 to 1000 nM
- IC50 [4]: < 100 nM

Structure (SMILES): CCC(=O)N1CCC[C@@H]1COc1cnccc1-c1[nH]c2c(c1Nc1cccc(Cl)c1OC)C(=O)NCC2 [Compound 470, 3-[(3-chloro-2-methoxyphenyl)amino]-2-(3-[[(2R)-1-propanoylpyrrolidin-2-yl]methoxy]pyridin-4-yl)-1H,5H,6H,7H-pyrrolo[3,2-c]pyridin-4-one]
- IC50 [1]: > 1000 nM
- IC50 [2]: > 1000 nM
- IC50 [3]: > 1000 nM
- IC50 [4]: 100 to 1000 nM

Structure (SMILES): COc1c(F)cccc1Nc1c(-c2ccncc2OCc2ccccn2)[nH]c2c1C(=O)NCC2 [Compound 472, 3-[(3-fluoro-2-methoxyphenyl)amino]-2-[3-(pyridin-2-ylmethoxy)pyridin-4-yl]-1H,5H,6H,7H-pyrrolo[3,2-c]pyridin-4-one]
- IC50 [1]: < 100 nM
- IC50 [2]: < 100 nM
- IC50 [3]: < 100 nM
- IC50 [4]: < 100 nM

Structure (SMILES): COc1cccnc1COc1cnccc1-c1[nH]c2c(c1Nc1cccc(F)c1OC)C(=O)NCC2 [Compound 476, 3-[(3-fluoro-2-methoxyphenyl)amino]-2-[3-[(3-methoxypyridin-2-yl)methoxy]pyridin-4-yl]-1H,5H,6H,7H-pyrrolo[3,2-c]pyridin-4-one]
- IC50 [1]: < 100 nM
- IC50 [2]: 100 to 1000 nM
- IC50 [3]: < 100 nM
- IC50 [4]: < 100 nM

Structure (SMILES): C=CC(=O)N1CCC[C@H]1COc1cnccc1-c1[nH]c2c(c1Nc1cccc(F)c1CC)C(=O)NCC2 [compound 211, 3-[(2-ethyl-3-fluorophenyl)amino]-2-(3-{[(2S)-1-(prop-2-enoyl)pyrrolidin-2-yl]methoxy}pyridin-4-yl)-1H,5H,6H,7H-pyrrolo[3,2-c] pyridin-4-one]
- IC50 [1]: < 100 nM
- IC50 [2]: < 100 nM
- IC50 [3]: < 100 nM
- IC50 [4]: < 100 nM

Structure (SMILES): C=C(F)C(=O)N1CC[C@@H]1COc1cnccc1-c1[nH]c2c(c1Nc1cccc(Cl)c1OC)C(=O)NCC2 [compound 226, 3-[(3-chloro-2-methoxyphenyl)amino]-2-(3-{[(2R)-1-(2-fluoroprop-2-enoyl)azetidin-2-yl]methoxy}pyridin-4-yl)-1H,5H,6H,7H-pyrrolo[3,2-c]pyridin-4-one]
- IC50 [1]: < 100 nM
- IC50 [2]: 100 to 1000 nM
- IC50 [3]: < 100 nM
- IC50 [4]: < 100 nM

Structure (SMILES): COc1c(Cl)cccc1Nc1c(-c2ccncc2C#C[C@@H]2CN(C)CCO2)[nH]c2c1C(=O)NCC2 [compound 496]
- IC50 [1]: < 100 nM
- IC50 [2]: > 1000 nM
- IC50 [3]: < 100 nM
- IC50 [4]: < 100 nM
